{
  "source": "patent US20240002428A1",
  "about": "“STORAGE STABLE CAGED HAPTENS” (VENTANA MEDICAL SYSTEMS, INC., priority 2021, published 2024)",
  "assay": "Hydrolytic stability study of caged haptens at elevated temperature (reverse phase HPLC)",
  "format": "physicochemical",
  "settings": "100 mM PBS (pH 7.2), 37° C. oven, after 50 days of storage",
  "protocol": "To study the hydrolytic stability of caged hapten conjugates having any one of Formulas (IVA), (IVB), or (VA)-(VF) (see FIG. 9) model compounds were subjected to a stability study at elevated temperatures.\nModel compounds tested were the NP hapten with two different caging groups along with caged DIG, as set forth below:\nThe samples of caged NP and caged DIG were stored in 100 mM PBS (pH 7.2) in a 37° C. oven. The buffer and pH were representative of storage conditions for an antibody conjugate. A temperature of 37° C. was chosen to stress the sample and accelerate hydrolytic events. Normal storage conditions or the antibody conjugate were believed to be about 4° C. Aliquots of the samples were removed at regular intervals and tested by reverse phase HPLC on a Waters XBridge column on a Waters Alliance e2695 running Empower 3 (Waters). Each sample HPLC trace was examined for evidence of decaging or other forms of decomposition. […] The caged DIG testing was monitored out to 120 days and <0.5% hydrolysis was still observed at this point.",
  "data": [
    {"smiles": "COc1cc(Cn2nc(C(=O)NCCN)cc2[N+](=O)[O-])cc(OC)c1OP(=O)(O)O", "note": "[generation 1 caged-NP]", "values": [
      {"measurement": "hydrolysis (caged hapten hydrolyzed to the native hapten, percentage of the original material)", "value": "~15.5", "unit": "%"}
    ]},
    {"smiles": "COc1cc(Cn2nc(C(=O)NCCN)cc2[N+](=O)[O-])cc(OC)c1OCOP(=O)(O)O", "note": "[generation 2 caged-NP]", "values": [
      {"measurement": "hydrolysis (caged hapten hydrolyzed to the native hapten, percentage of the original material)", "value": "~6", "unit": "%"}
    ]}
  ]
}
